One assay concerns the target IMPDH human type II (Homo sapiens, UniProt P12268). Kind of assay: biochemical.
The next assay relates to human PBMC T cells. Kind of assay: cells. The settings on record: 72 h, read-out: T-cells (IC50). Format: cell-based.
In a further assay the test system is human PBMC B cells. Kind of assay: cells. Format: cell-based. Particulars: read-out: B-cells (IC50).

The Ki is the dissociation constant of the complex between target and ligand, obtained from inhibition or displacement. A lower Ki goes with higher affinity. A word on the IC50: it is the concentration that gives 50% inhibition.

Where two headings read alike, the source gives them in different places. Where only a bound is given, the exact number is not on record here.

As for `CC[C@H](COC(=O)CN)OC(=O)NCc1cccc(NC(=O)Nc2ccc(-c3cnco3)c(OC)c2)c1` [Compound 95], at IMPDH human type II (IMPDH human type II, 200 μM IMP, 200 μM NAD, 37° C.), the Ki was under 10 nM.

In the case of `COc1cc(NC(=O)Nc2cccc(CNC(=O)O[C@H](CN3CCCC3)c3ccccc3)c2)ccc1-c1cnco1` [Compound 98], the IC50 is under 100 nM with human PBMC T cells and under 100 nM in the assay on human PBMC B cells (Homo sapiens, 72 h).

Regarding `C=CC(COC(C)=O)OC(=O)NCc1cccc(NC(=O)Nc2ccc(-c3cnco3)c(OC)c2)c1` (stereo not shown) [Compound 133], the Ki on IMPDH human type II was 10 to 50 nM.

As for `COc1cc(NC(=O)Nc2cccc([C@H](C)NC(=O)O[C@H]3CCOC3)c2)ccc1C#N` [Compound 185], the IC50 with human PBMC B cells was under 100 nM.

On to `COc1cc(NC(=O)Nc2cccc(CNC(=O)OC3CCC[C@H]3N3CCOCC3)c2)ccc1-c1cnco1` (stereo partly shown) [Compound 80], for which the IC50 with human PBMC B cells (Homo sapiens, 72 h) was under 100 nM.

In the case of `CC[C@H](CCC#N)OC(=O)NCc1cccc(NC(=O)Nc2ccc(-c3cnco3)c(OC)c2)c1` [Compound 89], the IC50 in the assay with human PBMC T cells is under 100 nM; in the assay with human PBMC B cells (Homo sapiens, 72 h) it was under 100 nM.

Regarding `CC[C@@H](CC#N)OC(=O)NCc1cccc(NC(=O)Nc2ccc(-c3cnco3)c(OC)c2)c1` [Compound 88], the Ki at IMPDH human type II is under 10 nM.

With `CCC(CCC#N)OC(=O)NCc1cccc(NC(=O)Nc2ccc(-c3cnco3)c(OC)c2)c1` (stereo not shown) [Compound 45], the Ki on IMPDH human type II was under 10 nM.

On to `COc1cc(NC(=O)Nc2cccc(CNC(=O)OC[C@H](CC#N)NC(=O)OC(C)(C)C)c2)ccc1-c1cnco1` [Compound 10], for which the IC50 in the assay with human PBMC T cells was 100 to 1000 nM.

As to `CCN(C)CCC(OC(=O)NCc1cccc(NC(=O)Nc2ccc(-c3cnco3)c(OC)c2)c1)c1ccccc1` (stereo not shown) [Compound 139], the IC50 in the assay on human PBMC T cells was 100 to 1000 nM; with human PBMC B cells (Homo sapiens, 72 h), 100 to 1000 nM.

Source of the values: US8268873B2 (priority 1999, dated 2012).
